Columns and labels:
[1] = Stability of human Adrenomedullin in human Citrate plasma at 24° C., quantified by hADM immunoassay (MR-ADM/CT-ADM); format: in vitro ADME; settings: for Average ADM recovery (N = 5) / Loss of immune reactivity %/h: human Citrate plasma; for Average ADM recovery (N = 5): 10 ng ADM/ml; for Average loss of immune reactivity: average over time points, human plasma, MR-ADM/CT-ADM sandwich assay
Procedure: At selected time points, aliquots were frozen at −20° C.

[2] = using other assay methods (Hinson 2000); cited from earlier work

## CC[C@H](C)[C@H](NC(=O)[C@H](CCC(N)=O)NC(=O)[C@H](Cc1c[nH]cn1)NC(=O)[C@H](C)NC(=O)[C@H](CC(C)C)NC(=O)[C@H](CCCCN)NC(=O)[C@H](CCC(N)=O)NC(=O)[C@@H](NC(=O)[C@@H](NC(=O)[C@@H]1CSSC[C@H](NC(=O)CNC(=O)[C@H](Cc2ccccc2)NC(=O)[C@H](CO)NC(=O)[C@H](CCCNC(=N)N)NC(=O)[C@H](CC(C)C)NC(=O)CNC(=O)[C@H](CCC(N)=O)NC(=O)[C@H](Cc2ccccc2)NC(=O)[C@H](CC(N)=O)NC(=O)[C@H](CC(N)=O)NC(=O)[C@H](CCSC)NC(=O)[C@H](CO)NC(=O)[C@H](CCC(N)=O)NC(=O)[C@H](CCCNC(=N)N)NC(=O)[C@@H](N)Cc2ccc(O)cc2)C(=O)N[C@@H](CCCNC(=N)N)C(=O)N[C@@H](Cc2ccccc2)C(=O)NCC(=O)N[C@@H]([C@@H](C)O)C(=O)N1)[C@@H](C)O)C(C)C)C(=O)N[C@@H](Cc1ccc(O)cc1)C(=O)N[C@@H](CCC(N)=O)C(=O)N[C@@H](Cc1ccccc1)C(=O)N[C@H](C(=O)N[C@@H](CC(=O)O)C(=O)N[C@@H](CCCCN)C(=O)N[C@@H](CC(=O)O)C(=O)N[C@@H](CCCCN)C(=O)N[C@@H](CC(=O)O)C(=O)N[C@@H](CC(N)=O)C(=O)N[C@H](C(=O)N[C@@H](C)C(=O)N1CCC[C@H]1C(=O)N[C@@H](CCCNC(=N)N)C(=O)N[C@@H](CO)C(=O)N[C@@H](CCCCN)C(=O)N[C@H](C(=O)N[C@@H](CO)C(=O)N1CCC[C@H]1C(=O)N[C@@H](CCC(N)=O)C(=O)NCC(=O)N[C@@H](Cc1ccc(O)cc1)C(N)=O)[C@@H](C)CC)C(C)C)[C@@H](C)O [hADM]
[1]; 0 h
  Average ADM recovery (N = 5): 100
[1]; 2 h
  Loss of immune reactivity %/h: 0.4 %/h
  Average ADM recovery (N = 5): 99.2
[1]; 4 h
  Loss of immune reactivity %/h: 0.8 %/h
  Average ADM recovery (N = 5): 96.4
[1]; 8 h
  Loss of immune reactivity %/h: 1.5 %/h
  Average ADM recovery (N = 5): 88.2
[1]
  Average loss of immune reactivity: Average: 0.9%/h
[1]; listed as ADM
  Average loss of immune reactivity: 0.9 %/h
[2]
  plasma half life: 22 min

Source: US11726101B2, “Adrenomedullin assays and methods for determining mature adrenomedullin” (SPHINGOTEC GMBH, priority 2011, dated 2023)
